Literature values in patent US5565433A, “Sulfated β-glycolipid derivatives as cell adhesion inhibitors” (Bristol-Myers Squibb Company, priority 1996, dated 1996).

Tested on: P-selectin
Details: cells grown in the presence of sodium selenate; cited from earlier work

For O=[Se](=O)(O)O [sodium selenate], the “inhibition of P-selectin binding to myeloid cell lines (in words)” value is given as “can be inhibited”.
